In ChEMBL document CHEMBL1150454, “Synthesis, bioactivity, and DNA-cleaving ability of desferrioxamine B-nalidixic acid and anthraquinone carboxylic acid conjugates” (Bioorg Med Chem Lett, 1995):
Values after ≈ are worked out from the molar mass of the structure shown.

How the values were obtained:
Type in all cases: functional, organism-based
[1] = tested on: Plasmodium falciparum; test: In vitro antimalarial activity against Plasmodium falciparum D6
[2] = tested on: Plasmodium falciparum; test: In vitro antimalarial activity against Plasmodium falciparum W2
[3] = tested on: Plasmodium falciparum; test: In vitro antimalarial activity against Plasmodium falciparum W2; Not significant
[4] = tested on: Plasmodium falciparum; test: In vitro antimalarial activity against Plasmodium falciparum D6; Not significant

Row | IC50 [1] | IC50 [2] | IC50 [3] | IC50 [4] | SMILES
1 | ~0.6 µg/mL (≈ 0.774 µM) | ~0.6 µg/mL (≈ 0.774 µM) | – | – | CCn1cc(C(=O)NCCCCCN(O)C(=O)CCC(=O)NCCCCCN(O)C(=O)CCC(=O)NCCCCCN(O)C(C)=O)c(=O)c2ccc(C)nc21
2 | – | – | Not Active | Not Active | CC(=O)N(O)CCCCCNC(=O)CCC(=O)N(O)CCCCCNC(=O)CCC(=O)N(O)CCCCCNC(=O)c1ccc2c(c1)C(=O)c1ccccc1C2=O
